Results published in ChEMBL document CHEMBL5113477, “Membrane acting Povarov-Doebner derived compounds potently disperse preformed multidrug resistant Gram-positive bacterial biofilms” (Eur J Med Chem, 2022).
≈ marks a conversion by molar mass, not a printed value.

How the values were obtained:
Format in all cases: functional
Staphylococcus aureus [1] = assay: Induction of drug resistance in methicillin-resistant Staphylococcus aureus ATCC 33592 assessed as fold increase in MIC treated daily for 30 days; details: time 30.0 day
Staphylococcus aureus [2] = assay: Induction of drug resistance in methicillin-resistant Staphylococcus aureus USA 300 assessed as fold increase in MIC treated daily for 30 days; details: time 30.0 day
Staphylococcus aureus [3] = assay: Antibacterial activity against Staphylococcus aureus ATCC 25923 assessed as reduction in visible bacterial growth incubated for 18 to 20 hrs by CLSI based broth microdilution analysis; details: time 18-20 hrs
Enterococcus faecium [4] = assay: (§1) Synergistic antibiofilm activity against vancomycin-resistant Enterococcus faecium ATCC 700221 in TSB broth assessed as dispersal of glucose-induced biofilm preincubated with glucose for 48 hrs followed by compound addition and further incubated for 24 hrs in presence of Bithionol by crystal violet staining based checkerboard assay
Enterococcus faecalis [5] = assay: as §1, with “faecalis” for “faecium”, “51575” for “700221”, “Nitroxoline” for “Bithionol”
Enterococcus faecium [6] = assay: (§2) Synergistic antibiofilm activity against vancomycin-resistant Enterococcus faecium ATCC 700221 in TSB broth assessed as dispersal of glucose-induced biofilm by measuring Bithionol MBEC preincubated with glucose for 48 hrs followed by compound addition and measured after 24 hrs by crystal violet staining based checkerboard assay
Enterococcus faecalis [7] = assay: as §2, with “faecalis” for “faecium”, “51575” for “700221”, “Nitroxoline” for “Bithionol”
Staphylococcus aureus [8] = assay: as §2, with “methicillin-resistant Staphylococcus aureus USA 300” for “vancomycin-resistant Enterococcus faecium ATCC 700221”, “Nitroxoline” for “Bithionol”
Enterococcus faecalis [9] = assay: (§3) Synergistic antibiofilm activity against vancomycin-resistant Enterococcus faecalis ATCC 51575 in TSB broth assessed as dispersal of glucose-induced biofilm by measuring fractional inhibitory concentration index preincubated with glucose for 48 hrs followed by compound addition and further incubated for 24 hrs in presence of Nitroxoline by crystal violet staining based checkerboard assay
Staphylococcus aureus [10] = assay: (§4) Antibiofilm activity against methicillin-resistant Staphylococcus aureus USA 300 in TSB broth assessed as dispersal of glucose-induced biofilm preincubated with glucose for 48 hrs followed by compound addition and measured after 24 hrs by crystal violet staining based analysis
Enterococcus faecalis [11] = assay: as §1, with “faecalis” for “faecium”, “51575” for “700221”
Enterococcus faecium [12] = assay: Antibiofilm activity against vancomycin-resistant Enterococcus faecium ATCC 700221 in TSB broth assessed as dispersal of glucose-induced biofilm preincubated with glucose for 48 hrs followed by compound addition and measured after 24 hrs by crystal violet staining based analysis
Staphylococcus aureus [13] = assay: as §3, with “methicillin-resistant Staphylococcus aureus USA 300” for “vancomycin-resistant Enterococcus faecalis ATCC 51575”
Enterococcus faecalis [14] = assay: Antibiofilm activity against vancomycin-resistant Enterococcus faecalis ATCC 51575 in TSB broth assessed as dispersal of glucose-induced biofilm preincubated with glucose for 48 hrs followed by compound addition and measured after 24 hrs by crystal violet staining based analysis
Staphylococcus aureus [15] = assay: as §1, with “methicillin-resistant Staphylococcus aureus USA 300” for “vancomycin-resistant Enterococcus faecium ATCC 700221”
Enterococcus faecium [16] = assay: as §1, with “glucose-induced biofilm by measuring fractional inhibitory concentration index preincubated with” for “glucose-induced biofilm preincubated with”
Enterococcus faecium [17] = assay: as §1, with “Nitroxoline” for “Bithionol”
Staphylococcus aureus [18] = assay: as §1, with “methicillin-resistant Staphylococcus aureus USA 300” for “vancomycin-resistant Enterococcus faecium ATCC 700221”, “Nitroxoline” for “Bithionol”
Enterococcus faecalis [19] = assay: as §2, with “faecalis” for “faecium”, “51575” for “700221”
Staphylococcus aureus [20] = assay: as §4, with “Synergistic antibiofilm” for “Antibiofilm”, “biofilm by measuring Bithionol MBEC” for “biofilm”, “checkerboard assay” for “analysis”
Enterococcus faecium [21] = assay: as §2, with “Nitroxoline” for “Bithionol”
Staphylococcus aureus [22] = assay: as §3, with “methicillin-resistant Staphylococcus aureus USA 300” for “vancomycin-resistant Enterococcus faecalis ATCC 51575”, “Bithionol” for “Nitroxoline”
Enterococcus faecium [23] = assay: as §3, with “faecium” for “faecalis”, “700221” for “51575”
Enterococcus faecalis [24] = assay: as §3, with “Bithionol” for “Nitroxoline”
Staphylococcus aureus [25] = assay: Antibacterial activity against methicillin-resistant Staphylococcus aureus USA 300 (ARLG 1644) assessed as reduction in visible bacterial growth incubated for 18 to 20 hrs by CLSI based broth microdilution analysis; details: time 18-20 hrs
Staphylococcus aureus [26] = assay: Antibacterial activity against methicillin-resistant Staphylococcus aureus USA 300 (ARLG 1569) assessed as reduction in visible bacterial growth incubated for 18 to 20 hrs by CLSI based broth microdilution analysis; details: time 18-20 hrs
Enterococcus faecalis [27] = assay: Antibacterial activity against Enterococcus faecalis ATCC 29212 assessed as reduction in visible bacterial growth incubated for 18 to 20 hrs by CLSI based broth microdilution analysis; details: time 18-20 hrs
Staphylococcus aureus [28] = assay: Antibacterial activity against methicillin-resistant Staphylococcus aureus USA 300 (ARLG 1570) assessed as reduction in visible bacterial growth incubated for 18 to 20 hrs by CLSI based broth microdilution analysis; details: time 18-20 hrs
Staphylococcus aureus [29] = assay: Antibacterial activity against methicillin-resistant Staphylococcus aureus ATCC 33592 assessed as reduction in visible bacterial growth incubated for 18 to 20 hrs by CLSI based broth microdilution analysis; details: time 18-20 hrs
Listeria monocytogenes = assay: Antibacterial activity against Listeria monocytogenes ATCC 19115 assessed as reduction in visible bacterial growth incubated for 18 to 20 hrs by CLSI based broth microdilution analysis; details: time 18-20 hrs
Staphylococcus aureus [30] = assay: Antibacterial activity against methicillin-resistant Staphylococcus aureus USA 300 (ARLG 1567) assessed as reduction in visible bacterial growth incubated for 18 to 20 hrs by CLSI based broth microdilution analysis; details: time 18-20 hrs
Staphylococcus aureus [31] = assay: Antibacterial activity against methicillin-resistant Staphylococcus aureus USA 300 (ARLG 1568) assessed as reduction in visible bacterial growth incubated for 18 to 20 hrs by CLSI based broth microdilution analysis; details: time 18-20 hrs
Staphylococcus aureus [32] = assay: Antibacterial activity against methicillin-resistant Staphylococcus aureus USA 300 (ARLG 1665) assessed as reduction in visible bacterial growth incubated for 18 to 20 hrs by CLSI based broth microdilution analysis; details: time 18-20 hrs
Staphylococcus aureus [33] = assay: Antibacterial activity against methicillin-resistant Staphylococcus aureus USA 300 (ARLG 1561) assessed as reduction in visible bacterial growth incubated for 18 to 20 hrs by CLSI based broth microdilution analysis; details: time 18-20 hrs
Staphylococcus aureus [34] = assay: Antibacterial activity against methicillin-resistant Staphylococcus aureus USA 300 assessed as reduction in visible bacterial growth incubated for 18 to 20 hrs by CLSI based broth microdilution analysis; details: time 18-20 hrs
Staphylococcus aureus [35] = assay: Antibacterial activity against methicillin-resistant Staphylococcus aureus USA 300 (ARLG 1649) assessed as reduction in visible bacterial growth incubated for 18 to 20 hrs by CLSI based broth microdilution analysis; details: time 18-20 hrs
Staphylococcus aureus [36] = assay: Antibacterial activity against methicillin-resistant Staphylococcus aureus USA 300 (ARLG 1663) assessed as reduction in visible bacterial growth incubated for 18 to 20 hrs by CLSI based broth microdilution analysis; details: time 18-20 hrs

C/C(=C\C(=O)OCCCCCCCCC(=O)O)C[C@@H]1OC[C@H](C[C@@H]2O[C@H]2[C@@H](C)[C@H](C)O)[C@@H](O)[C@H]1O
fold change (FC) (Staphylococcus aureus [1]): > 250 | fold change (FC) (Staphylococcus aureus [2]): > 60

Oc1ccc([C@@H]2Nc3ccc(OC(F)F)cc3[C@H]3[C@@H]4CC[C@@H](C4)[C@H]32)cc1
MIC (Staphylococcus aureus [3]): 8 mg/L (≈ 22.4 µM)

Oc1ccccc1[C@@H]1Nc2ccc(S(F)(F)(F)(F)F)cc2[C@H]2[C@@H]3CC[C@@H](C3)[C@H]21
MIC (Staphylococcus aureus [3]): 4 mg/L (≈ 9.58 µM)

COc1ccc2c(c1)[C@H]1[C@@H]3CC[C@@H](C3)[C@H]1[C@H](c1ccc(O)cc1)N2
MIC (Staphylococcus aureus [3]): 4 mg/L (≈ 12.4 µM)

FC(F)(F)c1n[nH]cc1[C@@H]1Nc2ccc(S(F)(F)(F)(F)F)cc2[C@H]2[C@@H]3CC[C@@H](C3)[C@H]21
MBEC (Enterococcus faecium [4]): 1 µg/mL | MBEC (Enterococcus faecalis [5]): 1 µg/mL | MBEC (Enterococcus faecium [6]): 4 µg/mL | MBEC (Enterococcus faecalis [7]): 2 µg/mL | MBEC (Staphylococcus aureus [8]): 2 µg/mL | fractional inhibitory concentration index (FICI) (Enterococcus faecalis [9]): 0.25 | MBEC (Staphylococcus aureus [10]): 32 µg/mL | MBEC (Enterococcus faecalis [11]): 1 µg/mL | MBEC (Enterococcus faecium [12]): 32 µg/mL | fractional inhibitory concentration index (FICI) (Staphylococcus aureus [13]): 0.38 | MBEC (Enterococcus faecalis [14]): 32 µg/mL | MBEC (Staphylococcus aureus [15]): 1 µg/mL | fractional inhibitory concentration index (FICI) (Enterococcus faecium [16]): 0.28 | MBEC (Enterococcus faecium [17]): 1 µg/mL | MBEC (Staphylococcus aureus [18]): 8 µg/mL | MBEC (Enterococcus faecalis [19]): 2 µg/mL | MBEC (Staphylococcus aureus [20]): 2 µg/mL | MBEC (Enterococcus faecium [21]): 2 µg/mL | fractional inhibitory concentration index (FICI) (Staphylococcus aureus [22]): 0.28 | fractional inhibitory concentration index (FICI) (Enterococcus faecium [23]): 0.16 | fractional inhibitory concentration index (FICI) (Enterococcus faecalis [24]): 0.28

Oc1ccc([C@@H]2Nc3c(SC(F)(F)F)cccc3[C@H]3[C@@H]4CC[C@@H](C4)[C@H]32)cc1
MIC (Staphylococcus aureus [3]): > 16 mg/L

CN[C@H](CC(C)C)C(=O)N[C@H]1C(=O)N[C@@H](CC(N)=O)C(=O)N[C@H]2C(=O)N[C@H]3C(=O)N[C@H](C(=O)N[C@H](C(=O)O)c4cc(O)cc(O)c4-c4cc3ccc4O)[C@H](O)c3ccc(c(Cl)c3)Oc3cc2cc(c3O[C@@H]2O[C@H](CO)[C@@H](O)[C@H](O)[C@H]2O[C@H]2C[C@](C)(N)[C@H](O)[C@H](C)O2)Oc2ccc(cc2Cl)[C@H]1O [VANCOMYCIN]
MBC (Staphylococcus aureus [25]): 1 mg/L (≈ 0.69 µM) | MBC (Staphylococcus aureus [26]): 1 mg/L (≈ 0.69 µM) | MBC (Staphylococcus aureus [3]): 2 mg/L (≈ 1.38 µM) | MBC (Enterococcus faecalis [27]): 2 mg/L (≈ 1.38 µM) | MIC (Enterococcus faecalis [27]): 2 mg/L (≈ 1.38 µM) | MBC (Staphylococcus aureus [28]): 2 mg/L (≈ 1.38 µM) | MBC (Staphylococcus aureus [29]): 1 mg/L (≈ 0.69 µM) | MBC (Listeria monocytogenes): 2 mg/L (≈ 1.38 µM) | MIC (Listeria monocytogenes): 1 mg/L (≈ 0.69 µM) | MBC (Staphylococcus aureus [30]): 1 mg/L (≈ 0.69 µM) | MBC (Staphylococcus aureus [31]): 1 mg/L (≈ 0.69 µM) | MBC (Staphylococcus aureus [32]): 8 mg/L (≈ 5.52 µM) | MBC (Staphylococcus aureus [33]): 1 mg/L (≈ 0.69 µM) | MBC (Staphylococcus aureus [34]): 2 mg/L (≈ 1.38 µM) | MBC (Staphylococcus aureus [35]): 1 mg/L (≈ 0.69 µM) | MBC (Staphylococcus aureus [36]): 1 mg/L (≈ 0.69 µM)

Oc1ccc([C@@H]2Nc3cc(F)cc(F)c3[C@H]3[C@@H]4CC[C@@H](C4)[C@H]32)cc1
MIC (Staphylococcus aureus [3]): 4 mg/L (≈ 12.2 µM)

Oc1cccc([C@@H]2Nc3ccc(S(F)(F)(F)(F)F)cc3[C@H]3[C@@H]4CC[C@@H](C4)[C@H]32)c1
MIC (Staphylococcus aureus [3]): 4 mg/L (≈ 9.58 µM)

O=[N+]([O-])c1ccc(O)c2ncccc12 [NITROXOLINE]
MBEC (Staphylococcus aureus [10]): 16 µg/mL | MBEC (Enterococcus faecium [12]): 16 µg/mL | MBEC (Enterococcus faecalis [14]): 16 µg/mL

Oc1ccc([C@@H]2Nc3ccccc3[C@H]3[C@@H]4CC[C@@H](C4)[C@H]32)cc1
MIC (Staphylococcus aureus [3]): > 16 mg/L

Oc1ccc([C@@H]2Nc3c(OC(F)(F)F)cccc3[C@H]3[C@@H]4CC[C@@H](C4)[C@H]32)cc1
MIC (Staphylococcus aureus [3]): 4 mg/L (≈ 10.7 µM)
